# Experimental data: ChEMBL document CHEMBL5375952, “Discovery of Novel 8-Hydroxyquinoline Derivatives with Potent In Vitro and In Vivo Antifungal Activity” (J Med Chem, 2023)
# What was measured:
# [1] = test system: Candida albicans; test: Antifungal activity against Candida albicans SC5314 assessed as fungal growth inhibition incubated for 48 hrs by broth microdilution method; assay type: functional
# [2] = test system: Candida albicans; test: Antifungal activity against Candida albicans 21 assessed as fungal growth inhibition incubated for 48 hrs by broth microdilution method; assay type: functional
# [3] = test system: Nakaseomyces glabratus; test: Antifungal activity against Candida glabrata 201 assessed as fungal growth inhibition incubated for 48 hrs by broth microdilution method; assay type: functional
# [4] = test system: Nakaseomyces glabratus; test: Antifungal activity against Candida glabrata 202 assessed as fungal growth inhibition incubated for 48 hrs by broth microdilution method; assay type: functional
# [5] = test system: Nakaseomyces glabratus; test: Antifungal activity against Candida glabrata 205 assessed as fungal growth inhibition incubated for 48 hrs by broth microdilution method; assay type: functional
# [6] = test system: Pichia kudriavzevii; test: Antifungal activity against Candida krusei 68 assessed as fungal growth inhibition incubated for 48 hrs by broth microdilution method; assay type: functional
# [7] = test system: Pichia kudriavzevii; test: Antifungal activity against Candida krusei 69 assessed as fungal growth inhibition incubated for 48 hrs by broth microdilution method; assay type: functional
# [8] = test system: Pichia kudriavzevii; test: Antifungal activity against Candida krusei 477 assessed as fungal growth inhibition incubated for 48 hrs by broth microdilution method; assay type: functional
# [9] = test system: Candida parapsilosis; test: Antifungal activity against Candida parapsilosis 105 assessed as fungal growth inhibition incubated for 48 hrs by broth microdilution method; assay type: functional; details: Lodderomyces parapsilosis
# [10] = test system: Candida parapsilosis; test: Antifungal activity against Candida parapsilosis 125 assessed as fungal growth inhibition incubated for 48 hrs by broth microdilution method; assay type: functional; details: Lodderomyces parapsilosis
# [11] = test system: Candida tropicalis; test: Antifungal activity against Candida tropicalis 176 assessed as fungal growth inhibition incubated for 48 hrs by broth microdilution method; assay type: functional
# [12] = test system: Candida tropicalis; test: Antifungal activity against Candida tropicalis 178 assessed as fungal growth inhibition incubated for 48 hrs by broth microdilution method; assay type: functional
# [13] = test system: Candida tropicalis; test: Antifungal activity against Candida tropicalis 184 assessed as fungal growth inhibition incubated for 48 hrs by broth microdilution method; assay type: functional
# [14] = test system: Cryptococcus neoformans; test: Antifungal activity against Cryptococcus neoformans 443 assessed as fungal growth inhibition incubated for 48 hrs by broth microdilution method; assay type: functional
# [15] = test system: Cryptococcus neoformans; test: Antifungal activity against Cryptococcus neoformans 444 assessed as fungal growth inhibition incubated for 48 hrs by broth microdilution method; assay type: functional
# [16] = test system: Cryptococcus neoformans; test: Antifungal activity against Cryptococcus neoformans 445 assessed as fungal growth inhibition incubated for 48 hrs by broth microdilution method; assay type: functional
# [17] = test system: Aspergillus fumigatus; test: Antifungal activity against Aspergillus fumigatus 023-12 assessed as fungal growth inhibition incubated for 48 hrs by broth microdilution method; assay type: functional
# [18] = test system: Aspergillus fumigatus; test: Antifungal activity against Aspergillus fumigatus A assessed as fungal growth inhibition incubated for 48 hrs by broth microdilution method; assay type: functional
# [19] = test system: Aspergillus fumigatus; test: Antifungal activity against Aspergillus fumigatus 7544 assessed as fungal growth inhibition incubated for 48 hrs by broth microdilution method; assay type: functional
# [20] = Cytotoxicity against human Caco-2 cells assessed as cell growth inhibition incubated for 24 hrs by CCK8 assay; assay type: toxicity, cell-based
# [21] = test system: Candida albicans; test: Antifungal activity against Candida albicans 25 assessed as fungal growth inhibition incubated for 48 hrs by broth microdilution method; assay type: functional
# [22] = test system: Candida albicans; test: Antifungal activity against Candida albicans 337 assessed as fungal growth inhibition incubated for 48 hrs by broth microdilution method; assay type: functional
# [23] = test system: Candida albicans; test: Antifungal activity against Candida albicans 338 assessed as fungal growth inhibition incubated for 48 hrs by broth microdilution method; assay type: functional
# [24] = test system: [Candida] auris; test: Antifungal activity against Candida auris 276 assessed as fungal growth inhibition incubated for 48 hrs by broth microdilution method; assay type: functional; details: Candidozyma auris
# [25] = test system: [Candida] auris; test: Antifungal activity against Candida auris 277 assessed as fungal growth inhibition incubated for 48 hrs by broth microdilution method; assay type: functional; details: Candidozyma auris
# [26] = test system: [Candida] auris; test: Antifungal activity against Candida auris 278 assessed as fungal growth inhibition incubated for 48 hrs by broth microdilution method; assay type: functional; details: Candidozyma auris
# [27] = test system: [Candida] auris; test: Antifungal activity against Candida auris CBS 12372 assessed as fungal growth inhibition incubated for 48 hrs by broth microdilution method; assay type: functional; details: Candidozyma auris
# [28] = test system: [Candida] auris; test: Antifungal activity against Candida auris 888 assessed as fungal growth inhibition incubated for 48 hrs by broth microdilution method; assay type: functional; details: Candidozyma auris
# [29] = test system: Nakaseomyces glabratus; test: Antifungal activity against Candida glabrata 203 assessed as fungal growth inhibition incubated for 48 hrs by broth microdilution method; assay type: functional
# [30] = test system: Nakaseomyces glabratus; test: Antifungal activity against Candida glabrata 204 assessed as fungal growth inhibition incubated for 48 hrs by broth microdilution method; assay type: functional
# [31] = test system: Nakaseomyces glabratus; test: Antifungal activity against Candida glabrata 222 assessed as fungal growth inhibition incubated for 48 hrs by broth microdilution method; assay type: functional
# [32] = test system: Pichia kudriavzevii; test: Antifungal activity against Candida krusei 471 assessed as fungal growth inhibition incubated for 48 hrs by broth microdilution method; assay type: functional
# [33] = test system: Pichia kudriavzevii; test: Antifungal activity against Candida krusei 472 assessed as fungal growth inhibition incubated for 48 hrs by broth microdilution method; assay type: functional
# [34] = test system: Candida parapsilosis; test: Antifungal activity against Candida parapsilosis 104 assessed as fungal growth inhibition incubated for 48 hrs by broth microdilution method; assay type: functional; details: Lodderomyces parapsilosis
# [35] = test system: Candida parapsilosis; test: Antifungal activity against Candida parapsilosis 106 assessed as fungal growth inhibition incubated for 48 hrs by broth microdilution method; assay type: functional; details: Lodderomyces parapsilosis
# [36] = test system: Candida tropicalis; test: Antifungal activity against Candida tropicalis 172 assessed as fungal growth inhibition incubated for 48 hrs by broth microdilution method; assay type: functional
# [37] = test system: Candida tropicalis; test: Antifungal activity against Candida tropicalis 177 assessed as fungal growth inhibition incubated for 48 hrs by broth microdilution method; assay type: functional
# [38] = test system: Candida tropicalis; test: Antifungal activity against Candida tropicalis 182 assessed as fungal growth inhibition incubated for 48 hrs by broth microdilution method; assay type: functional
# [39] = test system: Cryptococcus neoformans; test: Antifungal activity against Cryptococcus neoformans H99 assessed as fungal growth inhibition incubated for 48 hrs by broth microdilution method; assay type: functional
# [40] = test system: Cryptococcus neoformans; test: Antifungal activity against Cryptococcus neoformans SH68 assessed as fungal growth inhibition incubated for 48 hrs by broth microdilution method; assay type: functional
# [41] = test system: Cryptococcus neoformans; test: Antifungal activity against Cryptococcus neoformans 56992 assessed as fungal growth inhibition incubated for 48 hrs by broth microdilution method; assay type: functional
# [42] = test system: Cryptococcus neoformans; test: Antifungal activity against Cryptococcus neoformans HN1 assessed as fungal growth inhibition incubated for 48 hrs by broth microdilution method; assay type: functional
# [43] = test system: Cryptococcus neoformans; test: Antifungal activity against Cryptococcus neoformans HN2 assessed as fungal growth inhibition incubated for 48 hrs by broth microdilution method; assay type: functional
# [44] = test system: Cryptococcus neoformans; test: Antifungal activity against Cryptococcus neoformans HN2-40 assessed as fungal growth inhibition incubated for 48 hrs by broth microdilution method; assay type: functional
# [45] = test system: Cryptococcus neoformans; test: Antifungal activity against Cryptococcus neoformans HN15 assessed as fungal growth inhibition incubated for 48 hrs by broth microdilution method; assay type: functional
# [46] = test system: Cryptococcus neoformans; test: Antifungal activity against Cryptococcus neoformans HN17 assessed as fungal growth inhibition incubated for 48 hrs by broth microdilution method; assay type: functional
# [47] = test system: Cryptococcus neoformans; test: Antifungal activity against Cryptococcus neoformans HN19 assessed as fungal growth inhibition incubated for 48 hrs by broth microdilution method; assay type: functional
# [48] = test system: Cryptococcus neoformans; test: Antifungal activity against Cryptococcus neoformans HN20 assessed as fungal growth inhibition incubated for 48 hrs by broth microdilution method; assay type: functional
# [49] = test system: Cryptococcus neoformans; test: Antifungal activity against Cryptococcus neoformans BJ3 assessed as fungal growth inhibition incubated for 48 hrs by broth microdilution method; assay type: functional
# [50] = Antifungal activity against Cryptococcus gattii WM178 assessed as fungal growth inhibition incubated for 48 hrs by broth microdilution method; assay type: functional, Cryptococcus gattii VGI
# [51] = Antifungal activity against Cryptococcus gattii WM179 assessed as fungal growth inhibition incubated for 48 hrs by broth microdilution method; assay type: functional, Cryptococcus gattii VGI
# [52] = Antifungal activity against Cryptococcus gattii E566 assessed as fungal growth inhibition incubated for 48 hrs by broth microdilution method; assay type: functional, Cryptococcus gattii VGI
# [53] = Antifungal activity against Cryptococcus gattii SCZ20031 assessed as fungal growth inhibition incubated for 48 hrs by broth microdilution method; assay type: functional, Cryptococcus gattii VGI
structure (smiles),measurement,setting,value
Oc1c(I)cc(Cl)c2cccnc12 [CLIOQUINOL],MIC,[1],0.125 µg/mL
same,MIC,[2],0.125 µg/mL
same,MIC,[3],0.125 µg/mL
same,MIC,[4],0.125 µg/mL
same,MIC,[5],0.25 µg/mL
same,MIC,[6],0.25 µg/mL
same,MIC,[7],0.125 µg/mL
same,MIC,[8],0.25 µg/mL
same,MIC,[9],0.25 µg/mL
same,MIC,[10],0.25 µg/mL
same,MIC,[11],0.032 µg/mL
same,MIC,[12],0.125 µg/mL
same,MIC,[13],0.125 µg/mL
same,MIC,[14],0.125 µg/mL
same,MIC,[15],0.125 µg/mL
same,MIC,[16],0.063 µg/mL
same,MIC,[17],0.25 µg/mL
same,MIC,[18],0.25 µg/mL
same,MIC,[19],0.25 µg/mL
same,IC50 at 24 h,[20],19.3 µg/mL
same,MIC,[21],0.125 µg/mL
same,MIC,[22],0.125 µg/mL
same,MIC,[23],0.125 µg/mL
same,MIC,[24],0.063 µg/mL
same,MIC,[25],0.063 µg/mL
same,MIC,[26],0.125 µg/mL
same,MIC,[27],0.063 µg/mL
same,MIC,[28],0.25 µg/mL
same,MIC,[29],0.125 µg/mL
same,MIC,[30],0.125 µg/mL
same,MIC,[31],0.25 µg/mL
same,MIC,[32],0.25 µg/mL
same,MIC,[33],0.125 µg/mL
same,MIC,[34],0.125 µg/mL
same,MIC,[35],0.25 µg/mL
same,MIC,[36],0.125 µg/mL
same,MIC,[37],0.125 µg/mL
same,MIC,[38],0.125 µg/mL
same,MIC,[39],0.125 µg/mL
same,MIC,[40],0.125 µg/mL
same,MIC,[41],0.063 µg/mL
same,MIC,[42],0.125 µg/mL
same,MIC,[43],0.125 µg/mL
same,MIC,[44],0.063 µg/mL
same,MIC,[45],0.125 µg/mL
same,MIC,[46],0.125 µg/mL
same,MIC,[47],0.063 µg/mL
same,MIC,[48],0.063 µg/mL
same,MIC,[49],0.063 µg/mL
same,MIC,[50],0.031 µg/mL
same,MIC,[51],0.031 µg/mL
same,MIC,[52],0.031 µg/mL
same,MIC,[53],0.031 µg/mL
OC(Cn1cncn1)(Cn1cncn1)c1ccc(F)cc1F [FLUCONAZOLE],MIC,[1],0.5 µg/mL
same,MIC,[2],0.5 µg/mL
same,MIC,[3],1 µg/mL
same,MIC,[4],1 µg/mL
same,MIC,[5],1 µg/mL
same,MIC,[6],0.25 µg/mL
same,MIC,[7],0.25 µg/mL
same,MIC,[8],0.25 µg/mL
same,MIC,[9],> 64 µg/mL
same,MIC,[10],> 64 µg/mL
same,MIC,[11],2 µg/mL
same,MIC,[12],2 µg/mL
same,MIC,[13],2 µg/mL
same,MIC,[14],8 µg/mL
same,MIC,[15],8 µg/mL
same,MIC,[16],8 µg/mL
same,MIC,[17],> 64 µg/mL
same,MIC,[18],> 64 µg/mL
same,MIC,[19],> 64 µg/mL
same,IC50 at 24 h,[20],> 64 µg/mL
same,MIC,[21],0.5 µg/mL
same,MIC,[22],0.25 µg/mL
same,MIC,[23],0.5 µg/mL
same,MIC,[24],2 µg/mL
same,MIC,[25],4 µg/mL
same,MIC,[26],> 64 µg/mL
same,MIC,[27],> 64 µg/mL
same,MIC,[28],> 64 µg/mL
same,MIC,[29],0.125 µg/mL
same,MIC,[30],1 µg/mL
same,MIC,[31],1 µg/mL
same,MIC,[32],> 64 µg/mL
same,MIC,[33],> 64 µg/mL
same,MIC,[34],0.5 µg/mL
same,MIC,[35],0.5 µg/mL
same,MIC,[36],0.125 µg/mL
same,MIC,[37],2 µg/mL
same,MIC,[38],0.125 µg/mL
same,MIC,[39],8 µg/mL
same,MIC,[40],8 µg/mL
same,MIC,[41],4 µg/mL
same,MIC,[42],4 µg/mL
same,MIC,[43],4 µg/mL
same,MIC,[44],8 µg/mL
same,MIC,[45],4 µg/mL
same,MIC,[46],16 µg/mL
same,MIC,[47],8 µg/mL
same,MIC,[48],2 µg/mL
same,MIC,[49],16 µg/mL
same,MIC,[50],4 µg/mL
same,MIC,[51],4 µg/mL
same,MIC,[52],2 µg/mL
same,MIC,[53],4 µg/mL
